Reference: PMC5218480 (PLoS ONE, 2017)

Tested on: MV-4-11 cells
Assay: Gene expression microarray analysis (Affymetrix PrimeView) and GSEA
Format: cell-based, human
Set-up: RFU PODN (11730768_x_at) / Fold change /veh PODN (11730768_x_at) / RFU LINC00158 (11744669_a_at) / Fold change /veh LINC00158 (11744669_a_at) / RFU DUSP10 (11751237_a_at) / Fold change /veh DUSP10 (11751237_a_at) / RFU ID3 (11757404_x_at) / Fold change /veh ID3 (11757404_x_at) / RFU PLEKHG5 (11737974_s_at) / Fold change /veh PLEKHG5 (11737974_s_at) / RFU LRRC4B (11730491_at) / Fold change /veh LRRC4B (11730491_at) / RFU GIMAP4 (11747438_a_at) / Fold change /veh GIMAP4 (11747438_a_at) / RFU KRT8 (11758183_x_at) / Fold change /veh KRT8 (11758183_x_at) / RFU CNN1 (11734310_a_at) / Fold change /veh CNN1 (11734310_a_at) / RFU VPS37D (11726825_at) / Fold change /veh VPS37D (11726825_at) / RFU C10orf10 (11716522_x_at) / Fold change /veh C10orf10 (11716522_x_at) / RFU KIR2DL2 /// KIR2DL4 /// KIR2DL5A /// KIR2DL5B /// KIR2DS1 /// KIR2DS2 /// KIR2DS3 /// KIR2DS4 /// KIR3DL3 /// KIR3DL3 /// KIR3DS1 (11738374_at) / Fold change /veh KIR2DL2 /// KIR2DL4 /// KIR2DL5A /// KIR2DL5B /// KIR2DS1 /// KIR2DS2 /// KIR2DS3 /// KIR2DS4 /// KIR3DL3 /// KIR3DL3 /// KIR3DS1 (11738374_at) / RFU C1QL1 (11718748_at) / Fold change /veh C1QL1 (11718748_at) / RFU TMPRSS4 (11747572_a_at) / Fold change /veh TMPRSS4 (11747572_a_at) / RFU HAMP (11756126_x_at) / Fold change /veh HAMP (11756126_x_at) / RFU RNFT2 (11725882_a_at) / Fold change /veh RNFT2 (11725882_a_at) / RFU NR4A2 (11747474_a_at) / Fold change /veh NR4A2 (11747474_a_at) / RFU ABCC12 (11746883_a_at) / Fold change /veh ABCC12 (11746883_a_at) / RFU TMEM136 (11760407_x_at) / Fold change /veh TMEM136 (11760407_x_at) / RFU CLDN22 /// WWC2 (11732394_at) / Fold change /veh CLDN22 /// WWC2 (11732394_at) / RFU HLA-DPB1 (11760878_x_at) / Fold change /veh HLA-DPB1 (11760878_x_at) / RFU SPINT1 (11716480_a_at) / Fold change /veh SPINT1 (11716480_a_at) / RFU GAP43 (11754022_s_at) / Fold change /veh GAP43 (11754022_s_at) / RFU A4GNT (11735810_at) / Fold change /veh A4GNT (11735810_at) / RFU PRB3 (11715151_x_at) / Fold change /veh PRB3 (11715151_x_at) / RFU TUBB4B (11761932_at) / Fold change /veh TUBB4B (11761932_at) / RFU CAPN14 (11732068_a_at) / Fold change /veh CAPN14 (11732068_a_at) / RFU TMCC2 (11721928_a_at) / Fold change /veh TMCC2 (11721928_a_at) / RFU IRGQ (11745062_a_at) / Fold change /veh IRGQ (11745062_a_at) / RFU FAM174B (11720279_a_at) / Fold change /veh FAM174B (11720279_a_at) / RFU TMPRSS4 (11748680_a_at) / Fold change /veh TMPRSS4 (11748680_a_at) / RFU FAM212B (11763350_a_at) / Fold change /veh FAM212B (11763350_a_at) / RFU PLEKHG5 (11743358_a_at) / Fold change /veh PLEKHG5 (11743358_a_at) / RFU ZSCAN30 (11745921_a_at) / Fold change /veh ZSCAN30 (11745921_a_at) / RFU CMKLR1 (11741424_a_at) / Fold change /veh CMKLR1 (11741424_a_at) / RFU LOC101060620 /// MAPK8IP1 (11723275_at) / Fold change /veh LOC101060620 /// MAPK8IP1 (11723275_at) / RFU SPTSSB (11747773_x_at) / Fold change /veh SPTSSB (11747773_x_at) / RFU PRSS12 (11739890_at) / Fold change /veh PRSS12 (11739890_at) / RFU BIN1 (11741810_x_at) / Fold change /veh BIN1 (11741810_x_at) / RFU WNT11 (11732464_a_at) / Fold change /veh WNT11 (11732464_a_at) / RFU C10orf10 (11716521_a_at) / Fold change /veh C10orf10 (11716521_a_at) / RFU C5orf56 (11738089_at) / Fold change /veh C5orf56 (11738089_at) / RFU CYB561 (11721691_x_at) / Fold change /veh CYB561 (11721691_x_at) / RFU ANKRD19P (11752326_a_at) / Fold change /veh ANKRD19P (11752326_a_at) / RFU OR2T12 /// OR2T33 /// OR2T8 (11738714_s_at) / Fold change /veh OR2T12 /// OR2T33 /// OR2T8 (11738714_s_at) / RFU VCAN (11748164_a_at) / Fold change /veh VCAN (11748164_a_at) / RFU JSRP1 (11732532_at) / Fold change /veh JSRP1 (11732532_at) / RFU KRTAP10-11 (11738290_x_at) / Fold change /veh KRTAP10-11 (11738290_x_at) / RFU MYO3A (11730013_a_at) / Fold change /veh MYO3A (11730013_a_at) / RFU EBF3 (11725865_a_at) / Fold change /veh EBF3 (11725865_a_at) / RFU CAMK2N1 (11719241_x_at) / Fold change /veh CAMK2N1 (11719241_x_at) / RFU C5orf56 (11738088_a_at) / Fold change /veh C5orf56 (11738088_a_at) / RFU OLFML3 (11715873_a_at) / Fold change /veh OLFML3 (11715873_a_at) / RFU LOC100653217 /// NTM (11731650_a_at) / Fold change /veh LOC100653217 /// NTM (11731650_a_at) / RFU MAPK11 (11762145_a_at) / Fold change /veh MAPK11 (11762145_a_at) / RFU FIZ1 (11724087_x_at) / Fold change /veh FIZ1 (11724087_x_at) / RFU OASL (11726364_x_at) / Fold change /veh OASL (11726364_x_at) / RFU SOX15 (11748057_x_at) / Fold change /veh SOX15 (11748057_x_at) / RFU CD79A (11719716_a_at) / Fold change /veh CD79A (11719716_a_at) / RFU HIST1H1D (11736915_at) / Fold change /veh HIST1H1D (11736915_at) / RFU CASKIN2 (11723855_a_at) / Fold change /veh CASKIN2 (11723855_a_at) / RFU LOC730098 (11760151_x_at) / Fold change /veh LOC730098 (11760151_x_at) / RFU OR4N2 (11742367_at) / Fold change /veh OR4N2 (11742367_at) / RFU PRRT2 (11749266_a_at) / Fold change /veh PRRT2 (11749266_a_at) / RFU SNX32 (11753110_a_at) / Fold change /veh SNX32 (11753110_a_at) / RFU CDHR5 (11726645_a_at) / Fold change /veh CDHR5 (11726645_a_at) / RFU RCAN1 (11760418_a_at) / Fold change /veh RCAN1 (11760418_a_at) / RFU FAM167A (11723789_a_at) / Fold change /veh FAM167A (11723789_a_at) / RFU FAM26E (11764081_at) / Fold change /veh FAM26E (11764081_at) / RFU ISYNA1 (11749810_s_at) / Fold change /veh ISYNA1 (11749810_s_at) / RFU ACY1 (11761880_at) / Fold change /veh ACY1 (11761880_at) / RFU 11764098_at / Fold change /veh 11764098_at / RFU SAMD14 (11745864_x_at) / Fold change /veh SAMD14 (11745864_x_at) / RFU NPB (11741838_a_at) / Fold change /veh NPB (11741838_a_at) / RFU TMPRSS6 (11731388_a_at) / Fold change /veh TMPRSS6 (11731388_a_at) / RFU KRTAP10-2 (11738614_at) / Fold change /veh KRTAP10-2 (11738614_at) / RFU ARHGAP8 /// PRR5-ARHGAP8 (11727945_x_at) / Fold change /veh ARHGAP8 /// PRR5-ARHGAP8 (11727945_x_at) / RFU KRTAP5-7 /// NADSYN1 (11734609_at) / Fold change /veh KRTAP5-7 /// NADSYN1 (11734609_at) / RFU RASL12 (11751679_a_at) / Fold change /veh RASL12 (11751679_a_at) / RFU CDKN2B (11736163_a_at) / Fold change /veh CDKN2B (11736163_a_at) / RFU PRF1 (11729649_at) / Fold change /veh PRF1 (11729649_at) / RFU, ZNF638 /// ZNF638-IT1 / Fold change vs veh, ZNF638 /// ZNF638-IT1 / RFU, PANK3 / Fold change vs veh, PANK3 / RFU, SH3YL1 / Fold change vs veh, SH3YL1 / RFU, ZEB2 / Fold change vs veh, ZEB2 / RFU, NRIP1 / Fold change vs veh, NRIP1 / RFU, PTTG1IP / Fold change vs veh, PTTG1IP / RFU, CAPN2 / Fold change vs veh, CAPN2 / RFU, MED14 / Fold change vs veh, MED14 / RFU, SNORA58 / Fold change vs veh, SNORA58 / RFU, C1orf63 / Fold change vs veh, C1orf63 / RFU, LRRFIP1 / Fold change vs veh, LRRFIP1 / RFU, NDUFAF7 / Fold change vs veh, NDUFAF7 / RFU, SLC12A2 / Fold change vs veh, SLC12A2 / RFU, IBTK / Fold change vs veh, IBTK / RFU, ESF1 / Fold change vs veh, ESF1 / Fold change vs veh, TMEM50B / RFU, TAOK1 / Fold change vs veh, TAOK1 / RFU, ACBD3 / Fold change vs veh, ACBD3 / RFU, TMA16 / Fold change vs veh, TMA16 / RFU, RWDD3 / Fold change vs veh, RWDD3 / RFU, BCAT1 / Fold change vs veh, BCAT1 / RFU, EDEM3 / Fold change vs veh, EDEM3 / RFU, TMEM33 / Fold change vs veh, TMEM33 / RFU, WDR75 / Fold change vs veh, WDR75 / RFU, AHCTF1 / Fold change vs veh, AHCTF1 / RFU, TFRC / Fold change vs veh, TFRC / RFU, ZDHHC17 / Fold change vs veh, ZDHHC17 / RFU, NOM1 / Fold change vs veh, NOM1 / RFU, ARL8B / Fold change vs veh, ARL8B / RFU, ZBTB11 / Fold change vs veh, ZBTB11 / RFU, TAMM41 / Fold change vs veh, TAMM41 / RFU, KIAA1704 /// LOC100996395 / Fold change vs veh, KIAA1704 /// LOC100996395 / RFU, ING1 / Fold change vs veh, ING1 / RFU, TRMT61B / Fold change vs veh, TRMT61B / RFU, FUBP3 / Fold change vs veh, FUBP3 / RFU, TP53 / Fold change vs veh, TP53 / RFU, TNKS2 / Fold change vs veh, TNKS2 / RFU, ZFP14 / Fold change vs veh, ZFP14 / RFU, ACTR2 / Fold change vs veh, ACTR2 / RFU, PPP3R1 / Fold change vs veh, PPP3R1 / RFU, PIK3R1 / Fold change vs veh, PIK3R1 / RFU, HNRNPA1 / Fold change vs veh, HNRNPA1 / RFU, RNF170 / Fold change vs veh, RNF170 / RFU, ZNF28 / Fold change vs veh, ZNF28 / RFU, RNGTT / Fold change vs veh, RNGTT / RFU, OGT / Fold change vs veh, OGT / RFU, BRD1 / Fold change vs veh, BRD1 / RFU, MARS / Fold change vs veh, MARS / RFU, ZNF655 / Fold change vs veh, ZNF655 / RFU, FAHD1 / Fold change vs veh, FAHD1 / RFU, BDP1 / Fold change vs veh, BDP1 / RFU, LRRCC1 / Fold change vs veh, LRRCC1 / RFU, ARID1A / Fold change vs veh, ARID1A / RFU, ZNF146 / Fold change vs veh, ZNF146 / RFU, ZNF330 / Fold change vs veh, ZNF330 / RFU, GPN3 / Fold change vs veh, GPN3 / RFU, C9orf123 / Fold change vs veh, C9orf123 / RFU, N4BP2L2 / Fold change vs veh, N4BP2L2 / RFU, ARFIP1 / Fold change vs veh, ARFIP1 / RFU, FAM179B / Fold change vs veh, FAM179B / RFU, BCL10 / Fold change vs veh, BCL10 / RFU, UHRF1BP1L / Fold change vs veh, UHRF1BP1L / RFU, BET1 / Fold change vs veh, BET1 / RFU, CNOT2 / Fold change vs veh, CNOT2 / RFU, ZNF268 / Fold change vs veh, ZNF268 / Fold change vs veh, ZNF507 / RFU, DGCR2 / Fold change vs veh, DGCR2 / RFU, WDSUB1 / Fold change vs veh, WDSUB1 / Fold change vs veh, HSP90B1 /// MIR3652 / RFU, ADSS / Fold change vs veh, ADSS / RFU, GK / Fold change vs veh, GK / RFU, ZNF148 / Fold change vs veh, ZNF148 / RFU, TAF9 / Fold change vs veh, TAF9 / RFU, SLC1A5 / Fold change vs veh, SLC1A5 / RFU, SLMO2 / Fold change vs veh, SLMO2 / RFU, ABCC4 / Fold change vs veh, ABCC4 / RFU, LOC101060439 /// RAP1B / Fold change vs veh, LOC101060439 /// RAP1B / RFU, RFX7 / Fold change vs veh, RFX7 / RFU, GTPBP10 / Fold change vs veh, GTPBP10 / RFU, CNEP1R1 / Fold change vs veh, CNEP1R1 / RFU, BIVM-ERCC5 /// ERCC5 / Fold change vs veh, BIVM-ERCC5 /// ERCC5 / RFU, ILF3 / Fold change vs veh, ILF3 / RFU 11762660_at / Fold change /veh 11762660_at / RFU VCAN (11757783_s_at) / Fold change /veh VCAN (11757783_s_at) / RFU DDX43 (11728927_at) / Fold change /veh DDX43 (11728927_at) / RFU KRT8 (11758188_x_at) / Fold change /veh KRT8 (11758188_x_at) / RFU NKD1 (11759106_at) / Fold change /veh NKD1 (11759106_at) / RFU SRD5A1 (11742802_a_at) / Fold change /veh SRD5A1 (11742802_a_at) / RFU TPSAB1 /// TPSB2 (11721975_s_at) / Fold change /veh TPSAB1 /// TPSB2 (11721975_s_at) / RFU GSTM3 (11746129_a_at) / Fold change /veh GSTM3 (11746129_a_at) / RFU IL23R (11737362_x_at) / Fold change /veh IL23R (11737362_x_at) / RFU TMEM51 (11727254_a_at) / Fold change /veh TMEM51 (11727254_a_at) / RFU PIWIL2 (11732686_x_at) / Fold change /veh PIWIL2 (11732686_x_at) / RFU ORM1 (11744905_x_at) / Fold change /veh ORM1 (11744905_x_at) / RFU CCDC152 (11743942_at) / Fold change /veh CCDC152 (11743942_at) / RFU ECM1 (11717891_a_at) / Fold change /veh ECM1 (11717891_a_at) / RFU IL23R (11748794_a_at) / Fold change /veh IL23R (11748794_a_at) / RFU TNFAIP8L3 (11732012_x_at) / Fold change /veh TNFAIP8L3 (11732012_x_at) / RFU MBOAT4 (11741988_at) / Fold change /veh MBOAT4 (11741988_at) / RFU 11764193_at / Fold change /veh 11764193_at / RFU TMEM53 (11763286_at) / Fold change /veh TMEM53 (11763286_at) / RFU MAGEB2 (11727129_at) / Fold change /veh MAGEB2 (11727129_at) / RFU TMEM200A (11744735_a_at) / Fold change /veh TMEM200A (11744735_a_at) / RFU CCDC152 (11751479_a_at) / Fold change /veh CCDC152 (11751479_a_at) / RFU FAM211A (11726209_a_at) / Fold change /veh FAM211A (11726209_a_at) / RFU RGS16 (11746705_a_at) / Fold change /veh RGS16 (11746705_a_at) / RFU VCAN (11755009_s_at) / Fold change /veh VCAN (11755009_s_at) / RFU RHOB (11743442_s_at) / Fold change /veh RHOB (11743442_s_at) / RFU RGS16 (11720943_a_at) / Fold change /veh RGS16 (11720943_a_at) / RFU RGS16 (11720944_at) / Fold change /veh RGS16 (11720944_at) / RFU, VPS4B / Fold change vs veh, VPS4B / RFU, CREB1 / Fold change vs veh, CREB1 / RFU, DNAJC13 / Fold change vs veh, DNAJC13 / RFU, GNAQ / Fold change vs veh, GNAQ / RFU, CDK5R1 / Fold change vs veh, CDK5R1 / RFU, ZRANB3 / Fold change vs veh, ZRANB3 / RFU, CUL4A / Fold change vs veh, CUL4A / RFU, CCNY / Fold change vs veh, CCNY / RFU, UFL1 / Fold change vs veh, UFL1 / RFU, COG3 / Fold change vs veh, COG3 / RFU, DIAPH2 / Fold change vs veh, DIAPH2 / RFU, SKA2 / Fold change vs veh, SKA2 / RFU, AFF3 / Fold change vs veh, AFF3 / RFU, LMF1 / Fold change vs veh, LMF1 / RFU, IPO11 / Fold change vs veh, IPO11 / RFU, DFFB / Fold change vs veh, DFFB / RFU, FOXP1 / Fold change vs veh, FOXP1 / RFU, CARD8 / Fold change vs veh, CARD8 / RFU, STRN3 / Fold change vs veh, STRN3 / RFU, ADK / Fold change vs veh, ADK / RFU, RASSF2 / Fold change vs veh, RASSF2 / RFU, WIPF1 / Fold change vs veh, WIPF1 / RFU, LARP1B / Fold change vs veh, LARP1B / RFU, RASA1 / Fold change vs veh, RASA1 / RFU, RB1 / Fold change vs veh, RB1 / RFU, PPFIA1 / Fold change vs veh, PPFIA1 / RFU, MAT2A / Fold change vs veh, MAT2A / RFU, CCT5 / Fold change vs veh, CCT5 / RFU, WDR92 / Fold change vs veh, WDR92 / RFU, CUX1 / Fold change vs veh, CUX1 / RFU, TTC7A / Fold change vs veh, TTC7A / RFU, TMEM135 / Fold change vs veh, TMEM135 / RFU, DEPTOR / Fold change vs veh, DEPTOR / RFU, CPM / Fold change vs veh, CPM / RFU, DNAJB6 / Fold change vs veh, DNAJB6 / RFU, CACNA2D3 / Fold change vs veh, CACNA2D3 / RFU, DTX4 / Fold change vs veh, DTX4 / RFU, TFCP2 / Fold change vs veh, TFCP2 / RFU, GMCL1 /// GMCL1P1 / Fold change vs veh, GMCL1 /// GMCL1P1 / RFU, AEBP2 / Fold change vs veh, AEBP2 / RFU, SNHG1 /// SNORD22 /// SNORD25 /// SNORD26 /// SNORD27 /// SNORD28 /// SNORD29 /// SNORD31 / Fold change vs veh, SNHG1 /// SNORD22 /// SNORD25 /// SNORD26 /// SNORD27 /// SNORD28 /// SNORD29 /// SNORD31 / Fold change (Aza/veh), C12orf56 (ProbeSet 11735607_a_at) / Fold change (ACY-1035/veh), C12orf56 (ProbeSet 11735607_a_at) / Fold change (Aza/veh), FGFR1OP (ProbeSet 11751329_s_at) / Fold change (ACY-1035/veh), FGFR1OP (ProbeSet 11751329_s_at) / Fold change (Aza/veh), VPS36 (ProbeSet 11739960_a_at) / Fold change (ACY-1035/veh), VPS36 (ProbeSet 11739960_a_at) / RFU SYPL1 (11715823_x_at) / Fold change /veh SYPL1 (11715823_x_at) / RFU IGFBP7 (11715501_s_at) / Fold change /veh IGFBP7 (11715501_s_at) / RFU REEP3 (11722064_at) / Fold change /veh REEP3 (11722064_at) / RFU IGLL1 (11728026_x_at) / Fold change /veh IGLL1 (11728026_x_at): dose or concentration left out as unconfirmed
Conditions: ProbeSet 11758397_s_at; LIST B

## Nc1ncn([C@@H]2O[C@H](CO)[C@@H](O)[C@H]2O)c(=O)n1 [azacitidine]
  RFU, RNF170: 159.42 RFU
